According to patent US6428529B1, “Epidural administration of therapeutic compounds with sustained rate of release” (SkyePharma Inc., priority 1995, dated 2002):

Columns and labels:
rats [1] = test: Antinociception, hot plate test after epidural (or subcutaneous) dose; assay type: in vivo, Sprague-Dawley rats; details: 250 μg epidural
Method: Baseline values of nociception following placement of the epidural catheter were determined by subjecting the animals to standard hot plate (52.5±0.5° C.) testing as described in M. S. Wallace et al., (Anesth. Analg. 79:778-786, 1994). Response latency to nociception (in seconds) was measured from the time when the animals were placed on the hot plate to the time when they either licked their hind paw or jumped. The baseline (pretreatment) response latency value was defined as 0% of the maximum possible analgesia (MPA) in each experimental animal. […] Following epidural administration of the test solutions via the catheter emplanted as described above, the epidural catheter was flushed with 10 μl of 0.9% sodium chloride.
Antinociception was determined in 5 or 6 animals for each dose and each drug. To prevent tissue damage to the footpads, a cutoff time of 60 seconds was used. Accordingly, 100% MPA was defined as antinociception lasting ≧60 seconds.
Efficacy and respiratory depression curves were plotted as a function of time for each dose administered. Hot plate responses were calculated as a percentage of the maximum possible analgesia (%MPA) as described in Wallace et al. (supra): [formula]
All areas under the curves were calculated by the trapezoidal rule to the last data point using the RSTRIP computer program [Micromath, Salt Lake City, Utah]. […]

rats [2] = test: Respiratory depression quantified by pulse oximetry (SpO2) after single epidural bolus; details: for respiratory depression (decrease in SpO2): single epidural dose 10 to 2000 μg, sulfate
Method: Respiratory depression was quantified by pulse oximetry. The animals were removed from their cages, placed in polystyrene rat restraints (Plas Labs, Lansing, Mich.) and allowed to acclimate for 5 minutes. […] Pulse oximetry was performed on 5 to 6 animals at each data point, except for the 50 μg dose where 3 animals were used. The pulse oximetry values of percent hemoglobin oxygen saturation (SpO2) were monitored continuously in real time. The maximum value obtaining during the 3-minute recording period was defined as oxygen saturation.

For `CN1CC[C@]23c4c5ccc(O)c4O[C@H]2[C@@H](O)C=C[C@H]3[C@H]1C5.O=S(=O)(O)O` [MS, morphine sulfate], the “peak effect (% of maximum possible analgesia)” value (rats [1]) was about 100 % MPA, the “time to decrease to 50% MPA” value (rats [1]) was 0.17 days and the delayed respiratory depression (rats [2]; single epidural dose) was “no delayed respiratory depression”. For the same compound, the “respiratory depression (decrease in SpO2)” value (rats [2]; listed as free morphine) was “did cause respiratory suppression at high dosages” and the “respiratory depression (decrease in SpO2)” value (rats [2]) was “dose-dependent increase in respiratory depression”.
